Results published in patent publication US9580444B2, “Polycyclic pyrazolinone derivative and herbicide comprising same as effective component thereof” (priority 2013, dated 2017).

Assays:
Format in all cases: in vivo
[1] = system: Eleocharis acicularis (needle spikerush); test: Test Example-1: herbicidal effect by a treatment before weeds are generated under submerged conditions; details: 500 g a.i/ha, pre-emergence treatment, about 15 days after treatment, score 0-5
Summary of the method: (§1)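 This is a pre-emergence test under flooding: compound formulations were applied into the water at a set dosage on the day weeds were sown in puddled paddy soil. Weed control was rated on a six-step 0–5 scale roughly 15 days later.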

[2] = system: other annual broad leaf weeds (Lindernia procumbens, Rotala indica, Elatine triandra); test: as above; details: 500 g a.i/ha, pre-emergence treatment, about 15 days after treatment, score 0-5
Summary of the method: as §1

[3] = system: Monochoria vaginalis (monochoria); test: as above; details: 500 g a.i/ha, pre-emergence treatment, about 15 days after treatment, score 0-5
Summary of the method: as §1

[4] = system: Cyperus difformis (smallflower umbrella plant); test: as above; details: 500 g a.i/ha, pre-emergence treatment, about 15 days after treatment, score 0-5
Summary of the method: as §1

[5] = system: Echinochloa oryzicola (barnyard grass); test: as above; details: 500 g a.i/ha, pre-emergence treatment, about 15 days after treatment, score 0-5
Summary of the method: as §1

[6] = system: Scirpus juncoides (bulrush); test: as above; details: 500 g a.i/ha, pre-emergence treatment, about 15 days after treatment, score 0-5
Summary of the method: as §1

[7] = system: corn; test: Test Example-4: phytotoxicity by a foliage treatment after weeds are generated under upland field conditions; details: 500 g a.i/ha, foliage treatment after emergence, about 14 days after treatment, score 0-5
Summary of the method: (§2)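 Post-emergence foliar test: wettable powder or emulsifiable concentrate was diluted and sprayed at 4000 L water/ha at a set dosage onto plants raised 14 days from seed in upland soil. Herbicidal effect and corn injury were rated 0–5 roughly 14 days later.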

[8] = system: Amaranthus viridis (green amaranthus); test: Test Example-4: herbicidal effect by a foliage treatment after weeds are generated under upland field conditions; details: 500 g a.i/ha, foliage treatment after emergence, about 14 days after treatment, score 0-5
Summary of the method: as §2

[9] = system: Abutilon theophrasti (velvetleaf); test: as above; details: 500 g a.i/ha, foliage treatment after emergence, about 14 days after treatment, score 0-5
Summary of the method: as §2

[10] = system: Chenopodium album (common lambsquarters); test: as above; details: 500 g a.i/ha, foliage treatment after emergence, about 14 days after treatment, score 0-5
Summary of the method: as §2

C#CCOc1cc(-c2c(F)n3n(c2=O)CCOCC3)c(Cl)cc1Cl [Example 1-364]
Herbicidal effect Eleocharis acicularis [1]: 5 (Herbicidal effect/phytotoxicity was 90% or greater)
Herbicidal effect Broadleaf weed [2]: 5 (Herbicidal effect/phytotoxicity was 90% or greater)
Herbicidal effect Monochoria vaginalis [3]: 5 (Herbicidal effect/phytotoxicity was 90% or greater)
Herbicidal effect Cyperus difformis [4]: 5 (Herbicidal effect/phytotoxicity was 90% or greater)
Herbicidal effect Echinochloa oryzicola [5]: 5 (Herbicidal effect/phytotoxicity was 90% or greater)
Herbicidal effect Scirpus juncoides [6]: 5 (Herbicidal effect/phytotoxicity was 90% or greater)
Phytotoxicity Corn [7]: 1 (Herbicidal effect/phytotoxicity was 10% to 30%)
Herbicidal effect Amaranthus viridis [8]: 5 (Herbicidal effect/phytotoxicity was 90% or greater)
Herbicidal effect Abutilon theophrast [9]: 5 (Herbicidal effect/phytotoxicity was 90% or greater)
Herbicidal effect Chenopodium album [10]: 5 (Herbicidal effect/phytotoxicity was 90% or greater)

COCOc1cc(-c2c(Cl)n3n(c2=O)CCCC3)c(F)cc1F [Example 1-90]
Herbicidal effect Eleocharis acicularis [1]: 5 (Herbicidal effect/phytotoxicity was 90% or greater)
Herbicidal effect Broadleaf weed [2]: 5 (Herbicidal effect/phytotoxicity was 90% or greater)
Herbicidal effect Monochoria vaginalis [3]: 5 (Herbicidal effect/phytotoxicity was 90% or greater)
Herbicidal effect Cyperus difformis [4]: 5 (Herbicidal effect/phytotoxicity was 90% or greater)
Herbicidal effect Echinochloa oryzicola [5]: 5 (Herbicidal effect/phytotoxicity was 90% or greater)
Herbicidal effect Scirpus juncoides [6]: 5 (Herbicidal effect/phytotoxicity was 90% or greater)
Phytotoxicity Corn [7]: 3 (Herbicidal effect/phytotoxicity was 50% to 70%)
Herbicidal effect Amaranthus viridis [8]: 5 (Herbicidal effect/phytotoxicity was 90% or greater)
Herbicidal effect Abutilon theophrast [9]: 5 (Herbicidal effect/phytotoxicity was 90% or greater)
Herbicidal effect Chenopodium album [10]: 5 (Herbicidal effect/phytotoxicity was 90% or greater)

CC(C)=CCOc1cc(-c2c(Cl)n3n(c2=O)CCCC3)c(F)cc1Cl [Example 1-219]
Herbicidal effect Eleocharis acicularis [1]: 5 (Herbicidal effect/phytotoxicity was 90% or greater)
Herbicidal effect Broadleaf weed [2]: 5 (Herbicidal effect/phytotoxicity was 90% or greater)
Herbicidal effect Monochoria vaginalis [3]: 5 (Herbicidal effect/phytotoxicity was 90% or greater)
Herbicidal effect Cyperus difformis [4]: 5 (Herbicidal effect/phytotoxicity was 90% or greater)
Herbicidal effect Echinochloa oryzicola [5]: 5 (Herbicidal effect/phytotoxicity was 90% or greater)
Herbicidal effect Scirpus juncoides [6]: 5 (Herbicidal effect/phytotoxicity was 90% or greater)
Phytotoxicity Corn [7]: 2 (Herbicidal effect/phytotoxicity was 30% to 50%)
Herbicidal effect Amaranthus viridis [8]: 5 (Herbicidal effect/phytotoxicity was 90% or greater)
Herbicidal effect Abutilon theophrast [9]: 5 (Herbicidal effect/phytotoxicity was 90% or greater)
Herbicidal effect Chenopodium album [10]: 5 (Herbicidal effect/phytotoxicity was 90% or greater)

O=c1c(-c2cc(OCC3CCCCC3)c(Cl)cc2F)c(Cl)n2n1CCCC2 [Example 1-188]
Herbicidal effect Eleocharis acicularis [1]: 5 (Herbicidal effect/phytotoxicity was 90% or greater)
Herbicidal effect Broadleaf weed [2]: 5 (Herbicidal effect/phytotoxicity was 90% or greater)
Herbicidal effect Monochoria vaginalis [3]: 5 (Herbicidal effect/phytotoxicity was 90% or greater)
Herbicidal effect Cyperus difformis [4]: 5 (Herbicidal effect/phytotoxicity was 90% or greater)
Herbicidal effect Echinochloa oryzicola [5]: 5 (Herbicidal effect/phytotoxicity was 90% or greater)
Herbicidal effect Scirpus juncoides [6]: 5 (Herbicidal effect/phytotoxicity was 90% or greater)
Phytotoxicity Corn [7]: 0 (Herbicidal effect/phytotoxicity was 0% to 10%)
Herbicidal effect Amaranthus viridis [8]: 5 (Herbicidal effect/phytotoxicity was 90% or greater)
Herbicidal effect Abutilon theophrast [9]: 5 (Herbicidal effect/phytotoxicity was 90% or greater)
Herbicidal effect Chenopodium album [10]: 5 (Herbicidal effect/phytotoxicity was 90% or greater)

CC=CCOc1cc(-c2c(Cl)n3n(c2=O)CCCC3)c(F)cc1Cl [Example 1-209]
Herbicidal effect Eleocharis acicularis [1]: 5 (Herbicidal effect/phytotoxicity was 90% or greater)
Herbicidal effect Broadleaf weed [2]: 5 (Herbicidal effect/phytotoxicity was 90% or greater)
Herbicidal effect Monochoria vaginalis [3]: 5 (Herbicidal effect/phytotoxicity was 90% or greater)
Herbicidal effect Cyperus difformis [4]: 5 (Herbicidal effect/phytotoxicity was 90% or greater)
Herbicidal effect Echinochloa oryzicola [5]: 5 (Herbicidal effect/phytotoxicity was 90% or greater)
Herbicidal effect Scirpus juncoides [6]: 5 (Herbicidal effect/phytotoxicity was 90% or greater)
Phytotoxicity Corn [7]: 2 (Herbicidal effect/phytotoxicity was 30% to 50%)
Herbicidal effect Amaranthus viridis [8]: 5 (Herbicidal effect/phytotoxicity was 90% or greater)
Herbicidal effect Abutilon theophrast [9]: 5 (Herbicidal effect/phytotoxicity was 90% or greater)
Herbicidal effect Chenopodium album [10]: 5 (Herbicidal effect/phytotoxicity was 90% or greater)

C=CCCOc1cc(-c2c(Cl)n3n(c2=O)CCCC3)c(F)cc1Cl [Example 1-222]
Herbicidal effect Eleocharis acicularis [1]: 5 (Herbicidal effect/phytotoxicity was 90% or greater)
Herbicidal effect Broadleaf weed [2]: 5 (Herbicidal effect/phytotoxicity was 90% or greater)
Herbicidal effect Monochoria vaginalis [3]: 5 (Herbicidal effect/phytotoxicity was 90% or greater)
Herbicidal effect Cyperus difformis [4]: 5 (Herbicidal effect/phytotoxicity was 90% or greater)
Herbicidal effect Echinochloa oryzicola [5]: 5 (Herbicidal effect/phytotoxicity was 90% or greater)
Herbicidal effect Scirpus juncoides [6]: 5 (Herbicidal effect/phytotoxicity was 90% or greater)
Phytotoxicity Corn [7]: 2 (Herbicidal effect/phytotoxicity was 30% to 50%)
Herbicidal effect Amaranthus viridis [8]: 5 (Herbicidal effect/phytotoxicity was 90% or greater)
Herbicidal effect Abutilon theophrast [9]: 5 (Herbicidal effect/phytotoxicity was 90% or greater)
Herbicidal effect Chenopodium album [10]: 5 (Herbicidal effect/phytotoxicity was 90% or greater)

C=CCOc1cc(-c2c(Cl)n3n(c2=O)CCCC3)c(F)cc1Cl [Example 1-201]
Herbicidal effect Eleocharis acicularis [1]: 5 (Herbicidal effect/phytotoxicity was 90% or greater)
Herbicidal effect Broadleaf weed [2]: 5 (Herbicidal effect/phytotoxicity was 90% or greater)
Herbicidal effect Monochoria vaginalis [3]: 5 (Herbicidal effect/phytotoxicity was 90% or greater)
Herbicidal effect Cyperus difformis [4]: 5 (Herbicidal effect/phytotoxicity was 90% or greater)
Herbicidal effect Echinochloa oryzicola [5]: 5 (Herbicidal effect/phytotoxicity was 90% or greater)
Herbicidal effect Scirpus juncoides [6]: 5 (Herbicidal effect/phytotoxicity was 90% or greater)
Phytotoxicity Corn [7]: 2 (Herbicidal effect/phytotoxicity was 30% to 50%)
Herbicidal effect Amaranthus viridis [8]: 5 (Herbicidal effect/phytotoxicity was 90% or greater)
Herbicidal effect Abutilon theophrast [9]: 5 (Herbicidal effect/phytotoxicity was 90% or greater)
Herbicidal effect Chenopodium album [10]: 5 (Herbicidal effect/phytotoxicity was 90% or greater)
